Laboratory results from paper PMC9694488, “Amyloid beta and its naturally occurring N-terminal variants are potent activators of human and mouse formyl peptide receptor 1” (The Journal of Biological Chemistry, 2022).

Key:
hFPR2 = test: Ca2+ imaging, HEK293T transiently transfected with hFPR2; type: cell-based, human
Experimental: (§2) All peptides were thawed at room temperature approximately 1 h before each functional experiment, as this time was needed to prepare the compound plates for each measurement.
(§3) HEK293T cells (ATCC) were cultured in Dulbecco’s Modified Eagle’s medium (DMEM, Biowest) supplemented with 10% (v/v) heat-inactivated fetal calf serum (FCS, Pan Biotech), 1 unit/ml penicillin-streptomycin (Biowest), and 2 mM L-glutamine (Biowest) until 80% confluence. For transfection, approximately 2000 cells were seeded in each well of poly-D-lysine–coated (PDL) (10 μg/ml in PBS, Sigma) black optical 96-well μCLEAR-plates (Greiner Bio-One). Cells were transfected after 24 h using jetPEI (Polyplus-transfection SA) with 0.125 μg of DNA plasmids encoding the respective receptors and equal amounts of a plasmid encoding the G protein subunit Gα16 since this subunit is needed to trigger FPR-dependent calcium signals in HEK293 cells ([50], [70]). The medium of transfected cells was changed 24 h after transfection. For mock transfections, the proportion of the FPR-containing plasmids were substituted by an empty pcDNA3.1 vector.
(§4) Cell population responses of transfected HEK293T cells and U87 cells were recorded using a Flexstation III microplate reader (Molecular Devices). Briefly, cells were incubated with 2 μM Calbryte 520 AM (AAC Bioquest) for 2 h at room temperature in C1 assay buffer with 5 mM glucose (Carl Roth). Before each experiment, cells were rinsed three times with C1. Experiments with HEK293T cells were conducted 48 h after transfection, while experiments with U87 cells were performed 24 h after seeding. Acquisition of baseline fluorescence was performed for 25 s before ligand application, and cell population response was measured for 125 s after application.

mFpr3 = test: Ca2+ imaging, HEK293T transiently transfected with mFpr3; type: cell-based, mouse; conditions: Aβ1-42 from P&E in C1 buffer; n = 3, N = 2
[1] = tested on: primary murine glia and in vitro FPR expression systems; conditions: cited from earlier work
From the text: (§1) The activation of PRRs by Aβ has become a recent focus in AD research because they have a special ability to potently trigger the reactive state ([14], [25]). Among these PRRs, FPRs are one of the promising targets for AD research ([12]). They belong to a small gene family of G protein–coupled receptors with three members in humans and seven in mice ([26]). FPRs are primarily expressed in the innate and adaptive immune system, where they contribute to the detection and elimination of bacterial pathogens ([27], [28], [29], [30]). However, they are also expressed in a number of cell types in the ...

[2] = tested on: neutrophils and murine glial cells; conditions: cited from earlier work
From the text: as §1

[3] = tested on: rat microglia and astrocytes; conditions: cited from earlier work
From the text: as §1

human and murine FPR2 = conditions: cell lines transfected with human and murine FPR2; cited from earlier work
From the text: as §1

hFPR3 = test: Ca2+ imaging, HEK293T transiently transfected with hFPR3
Experimental: as §2, §3, §4

human and mouse FPRs = test: Ca2+ imaging, FPR-transfected HEK293T (several human and mouse FPRs taken together); type: cell-based
Experimental: as §2, §3, §4

[4] = Transmission electron microscopy of aggregates; type: physicochemical; conditions: 30 μM, 24 h incubation
From the text: Samples were then stained with 4% uranyl acetate. Subsequently, TEM images were acquired (JEOL 1400 Transmission Electron Microscope) and then processed in ImageJ.

monocytes and microglia = conditions: cited from earlier work
From the text: Factors such as the secondary structure, 3D conformation, and aggregation therefore seem to be of high importance for the precise activation pattern, and different receptor subtypes seem to prefer different peptide structures or exposed surfaces. Multiple previous studies have already shown that different buffer systems and solvents can critically influence properties of Aβ such as its aggregation kinetics and the structure ...

hFPR1 [5] = conditions: compared with this study; ref Le et al. and Slowik et al. (35, 42); cited from earlier work
hFPR1 [6] = test: Ca2+ imaging, HEK293T transiently transfected with hFPR1; type: cell-based, human
ThT aggregation assay = type: physicochemical
Experimental: DMSO. ThT (Sigma-Aldrich) stock solutions were dissolved at 1 mM in the respective buffer, sterile filtered with […] pore membranes, and stored at −20 °C. […] Fluorescence measurements were carried out as 100 μl triplicates in black optical 384-well μCLEAR-plates (Greiner Bio-One) at 37 °C with excitation at 440 nm and emission at 484 nm in a FlexStation III microplate reader within 15 min after thawing of the peptides. Signals were measured in intervals of 60 s for 120 min and were shaken for 3 s before each read.

[7] = CD spectroscopy (secondary structure); type: physicochemical; conditions: 30 μM in C1, sonicated 10 min, n = 3, N = 1
Experimental: CD spectra were recorded (JASCO J-1500 spectrometer) in a 1 mm High Precision Cell (Hellma Analytics). Data were processed in Spectra Analysis by JASCO and were plotted by Origin.

hFPR1, hFPR2, hFPR3 = test: Ca2+ imaging, human FPRs taken together; type: cell-based; conditions: transfected HEK293T
mFpr2 = test: Ca2+ imaging, HEK293T transiently transfected with mFpr2; type: cell-based, mouse
Experimental: as §2, §3, §4

mFpr1 = test: Ca2+ imaging, HEK293T transiently transfected with mFpr1; type: cell-based, mouse; conditions: for Ca2+ response, mFpr1: n = 3, N = 2
mouse and human FPR1 = tested on: mouse and human FPR1; set-up: method as in Tiffany et al.; conditions: ref Tiffany et al.; cited from earlier work
[8] = Aβ1-42 from Synpeptide, 10 μM, n = 3, N = 2
[9] = Ca2+ imaging, transfected HEK293T + Gα16, Calbryte 520, C1 buffer pH 7.2, n = 3, N = 1
[10] = 5 μM Aβ1-42 from P&E dissolved in DMSO vs C1, n = 3, N = 2
[11] = 5 μM Aβ1-42 from P&E, n = 3, N = 1
[12] = HFIP-treated Aβ1-42 from Anaspec, 10 μM, n = 3, N = 2
[13] = different suppliers, buffers, storage, solvents
[14] = Aβ1-42 from Sigma-Aldrich, 10 μM, n = 3, N = 2

Aβ1-42: Amyloid beta peptide, human WT sequence; from Peptides&Elephants, Anaspec (untreated or HFIP-treated), Sigma-Aldrich, Synpeptide
Ca2+ response, hFPR2 (hFPR2; [8]): the responses of hFPR1 and hFPR2 were lost | threshold for minimal detectable activation, hFPR2 (hFPR2; [9]): 3 µM | Ca2+ response, mFpr3 (mFpr3): did not respond | intracellular uptake via FPRs [1]: FPRs mediate the intracellular uptake of Aβ1-42 | FPR2-dependent pro-inflammatory effects [2]: led to the induction of oxidative stress, the release of pro-inflammatory cytokines, and chemotaxis | cAMP and ERK phosphorylation in rat microglia and astrocytes [3]: induced a decrease of cAMP and an induction of ERK phosphorylation | calcium mobilization and ERK signaling (human and murine FPR2): can induce calcium mobilization and ERK signaling | increase of hFPR3 response by DMSO (hFPR3; [10]): 32% | hFPR3 response in Tris–NaCl versus C1 (hFPR3; [11]): did not significantly alter the responses of hFPR3 | threshold for minimal detectable activation, hFPR3 (hFPR3; [9]): 3 µM | Ca2+ response, hFPR3 (hFPR3; [12]): weakly activated hFPR3, mFpr1, and mFpr2 | hFPR3 activation over all suppliers, buffers and solvents (hFPR3; [13]): activated under almost all conditions | FPR responses in HBSS (human and mouse FPRs; 5 μM Aβ1-42 from P&E dissolved in HBSS, n = 3, N = 1): complete loss of nearly all FPR responses | FPR responses in C1 compared with HBSS and Tris–NaCl (human and mouse FPRs; [11]): most robust activation of human and mouse FPRs in C1 | FPR response pattern after extended storage (human and mouse FPRs; 10 μM Aβ1-42 (Synpeptide), stored in C1 at -20 °C for 6 months vs freshly dissolved, n = 1, N = 2): Alterations of FPR responses | Ca2+ response pattern of mouse and human FPRs (human and mouse FPRs; [14]): elicited a similar response pattern as that of P&E | Ca2+ response, mouse and human FPRs other than mFpr1 (human and mouse FPRs; non-HFIP–treated Aβ1-42 from Anaspec, 10 μM, n = 3, N = 2): failed to activate any other mouse or human FPR | TEM aggregate morphology ([4]; Aβ1-42 from P&E): somewhat similar amorphous morphology | TEM aggregate morphology ([4]; Aβ1-42 from Synpeptide): somewhat similar amorphous morphology | TEM aggregate morphology ([4]; HFIP-treated Aβ1-42 from Anaspec): somewhat similar amorphous morphology | TEM aggregate morphology ([4]; non-HFIP–treated Aβ1-42 from Anaspec): seemed to directly form long fibers | FPR-dependent signaling with progressing aggregation (monocytes and microglia): lost FPR-dependent signaling with progressing aggregation | hFPR1 response to Aβ1-42 in earlier studies (hFPR1 [5]): far less pronounced | decrease of hFPR1 response by DMSO (hFPR1 [6]; [10]): 40% | reduction of signal amplitude, hFPR1, in Tris–NaCl versus C1 (hFPR1 [6]; [11]): approximately 50% | Ca2+ response, hFPR1 (hFPR1 [6]; Aβ1-42 from P&E in C1 buffer, n = 3, N = 2, compared with the other FPRs): even more sensitive and had a higher signal amplitude than any other receptor | Ca2+ response, hFPR1 (hFPR1 [6]; [14]): failed to activate hFPR1 | Ca2+ response, hFPR1 (hFPR1 [6]; [8]): the responses of hFPR1 and hFPR2 were lost | threshold for minimal detectable activation, hFPR1 (hFPR1 [6]; Ca2+ imaging, transfected HEK293T + Gα16, Calbryte 520, assay buffer C1 pH 7.2, peptide stock 30 μM in C1, n = 3, N = 1): 3 µM | capability to form aggregates in HBSS (ThT aggregation assay; Aβ1-42 from P&E, 22.5 μM, in HBSS, 37 °C): strong reduction in the capability to form aggregates | ThT fluorescence kinetics in the first 2 h (ThT aggregation assay; Aβ1-42 from Sigma-Aldrich, 22.5 μM in C1, 37 °C): did not drastically change | ThT fluorescence kinetics in the first 2 h (ThT aggregation assay; Aβ1-42 from Synpeptide, 22.5 μM in C1, 37 °C): did not drastically change | ThT fluorescence kinetics in the first 2 h (ThT aggregation assay; HFIP-treated Aβ1-42 from Anaspec (aggregation control), 22.5 μM, C1 with 0.2% DMSO, 37 °C): showed the expected increase | ThT fluorescence kinetics in the first 2 h (ThT aggregation assay; non-HFIP–treated Aβ1-42 from Anaspec, 22.5 μM in C1, 37 °C): showed a reduction of fluorescence | β-turn proportion in comparison with the Anaspec peptides ([7]; Aβ1-42 from P&E): significantly elevated β-turn proportions | β-turn proportion in comparison with the Anaspec peptides ([7]; Aβ1-42 from Synpeptide): significantly elevated β-turn proportions | response of hFPRs (in addition to hFPR2) (hFPR1, hFPR2, hFPR3): all other hFPRs also responded | threshold for minimal detectable activation, mFpr2 (mFpr2; [9]): 3 µM | Ca2+ response, mFpr2 (mFpr2; [12]): weakly activated hFPR3, mFpr1, and mFpr2 | Ca2+ response, mFpr1 (mFpr1; Aβ1-42 from P&E in C1 buffer, compared with the other FPRs): even more sensitive and had a higher signal amplitude than any other receptor | threshold for minimal detectable activation, mFpr1 (mFpr1; [9]): 500 nM | Ca2+ response, mFpr1 (mFpr1; HFIP-treated Aβ1-42 from Anaspec, 10 μM): weakly activated hFPR3, mFpr1, and mFpr2 | mFpr1 activation over all suppliers, buffers and solvents (mFpr1; [13]): activated under almost all conditions | Ca2+ response, mFpr1 (mFpr1; non-HFIP–treated Aβ1-42 from Anaspec, 10 μM): potently activated mFpr1 | activation of mouse and human FPR1 in an earlier study (mouse and human FPR1): failed to detect any activation of mouse and human FPR1
